Experimental findings from patent publication US20210040054A1, “Substituted Hydrophobic Benzene Sulfonamide Thiazole Compounds for Use in Treating Cancer” (INSERM (Institut National de la Sante et de la Recherche …, priority 2015, published 2021) are described below.

“Also recorded” adds a separate entry of the source.

Holding throughout (assay type): cell-based
The test system of data set [1] is resistant A375 R5C3 an A375 RIV cell lines. Description: Cell viability on resistant melanoma cell lines (FIG. 2a). To be noted: resistant A375 R5C3 and A375 RIV cell lines; 10 μM. On the procedure: (§1) Different melanoma cell lines were purchased from American Tissue Culture Collection (Molsheim, France). Cells were grown in RPMI 1640 (A375, WM9 and patient melanoma cells) or in DMEM medium (Mel501) supplemented with 10% FCS and penicillin/streptomycin (100 U/ml/[…]) at 37° C. and 5% CO2.
(§2) Cells were seeded in 6-well plates (60000 cells/well), depleted and incubated with compounds for the times indicated. Then cells were detached in the presence of 200 μl of HyQTase (Thermo) and 2 ml of RPMI 1640 Glutamax (Gibco) was added to the cell solution. 10 μl of this solution was stained for 1 minute with 10 μl of 0.4% trypan blue before counting with a Malassez chamber.
(§3) FIG. 1: the Effect of Compounds Ia-7, IIIa-3, IIIa-1, IIIa-2, 11a-2, 11a-9, Ia-4, Ha-11, IIa-12, IIa-6, Compared to Ia-1, on Cell Viability on A375 Melanoma Cells. Cell viability was assessed by measuring the number of cells alive in samples of different cells. The measure of cell viability as performed by cell counting using the trypan blue exclusion method. Results were expressed as the percentage of cells alive relatively to the number of living cells in the presence of DMSO, which corresponds to the negative control associated to the 100% value. […] The very active compounds IIa-2, IIIa-1 and IIIa-3 substituted in para position respectively with an octyne, hexyl and octyl chain, were selected to investigate their potential to promote cell death on resistant melanoma cell lines as well as other cancer cell lines. FIG. 2a. Effect of Compounds 11a-2, IIIa-1 and IIIa-3 on Cell Viability on Melanoma Cells. PLX4032 was Used as a Positive Control. […] FIG. 2b. Effect of Compounds IIa-2, IIIa-1 and IIIa-3 on Cell Viability on CML Cells. Imatinib was Used as a Positive Control. The activity of compounds IIa-2, IIIa-1 and IIIa-3 against CML cells was also evaluated. […] FIG. 2c. Effect of Compounds IIa-2, IIIa-1 and IIIa-3 on Cell Viability on Pancreatic Cancer Cells. Gemcitabine was Used as a Positive Control. The compounds IIa-2, IIIa-1 and IIIa-3 were next evaluated against pancreatic cells, BxPC3 (sensitive) and MiaPACA cell lines (resistant to the nucleoside analog Gemcitabine).

The next data set has as its system human normal melanocytes. In words: Viability of normal melanocytes (FIG. 3). To be noted: different concentration of IIa-2. On the procedure: Normal human melanocytes (NHM) prepared from foreskins of newborns were grown under 5% CO2 at 37° C. in MCDB 153 (Sigma) supplemented with 2% FCS, bovine pituitary extract (10 μg/ml), PMA (8 nM), bFGF (1 ng/ml), insulin (5 μg/ml), hydrocortisone (0.5 μg/ml), forskolin (10 μM), gentamicin (20 μg/ml), penicillin/streptomycin/amphotericin B (100 U/ml) (Invitrogen).
as §2
(§4) Primary cell cultures of human normal melanocytes were prepared from human foreskin. In order to determine the effect of compound IIa-2 on cell viability of melanocytes and fibroblasts, different concentration of IIa-2 were added to the cell samples. The measure of cell viability was performed in the same way as for FIG. 1. Results are expressed as the percentage of living cells relatively to the number of living cells in the presence of DMSO, as for FIG. 1.

In another data set the test system is Normal human fibroblasts. In words: Viability of normal fibroblasts (FIG. 3). To be noted: different concentration of IIa-2. On the procedure: Normal human fibroblasts prepared from foreskins of newborns were grown under 5% CO2 at 37° C. in DMEM medium supplemented with 10% FCS and penicillin/streptomycin (100 U/ml/[…]).
as §2, §4

Another data set relates to A375 melanoma cells. Description: Cell viability, trypan blue exclusion cell counting (FIG. 1). To be noted: compared to reference compound Ia-1. On the procedure: as §1, §2
as §3, with “Effect of Compounds IIa-2, IIIa-1 and IIIa-3 on Cell Viability on Pancreatic Cancer Cells. Gemcitabine was Used as a Positive Control.” left out

Another data set concerns sensitive K562 CML cells. In words: Cell viability on sensitive CML cells (FIG. 2b). To be noted: compared with Imatinib. On the procedure:
as §2, §3

The subject of another data set is A375 melanoma cell line. Description: Western blot, mechanism of death: PARP cleavage (apoptosis) and LCII/LCIII conversion (autophagy) (FIG. 4). The following applies: IIa-2 at 10 μM. On the procedure: Proteins were extracted in Fisher buffer containing TRIS-HCl pH 7.5 50 mM, NaCl 15 mM, Triton X-100 1% and proteases and phosphatases inhibitors. Briefly, cell lysates (30 μg) were separated by SDS-PAGE, transferred onto a PVDF membrane (Millipore, Molsheim, France) and then exposed to the appropriate antibodies. Proteins were visualized with the ECL system from Amersham (Arlington, Heights, Ill., USA). The western blots shown are representative of at least 3 independent experiments.
(Immunoblotting shows a protein as a band on a membrane.)

The test system of data set [2] is sensitive melanoma cell lines. Description: Cell viability on sensitive melanoma cell lines (FIG. 2a). The following applies: 10 μM. On the procedure:
as §1, §2
as §3, with “Effect of Compounds IIa-2, IIIa-1 and IIIa-3 on Cell Viability on Pancreatic Cancer Cells. Gemcitabine was Used as a Positive Control.” left out

For the next data set, the system named is resistant K562 cells. In words: Cell viability on resistant CML cells (FIG. 2b). The following applies: compared with Imatinib. On the procedure:
as §2, §3

A further data set concerns BxPC3 (sensitive). Description: Cell viability on sensitive pancreatic cancer cells (FIG. 2c). The following applies: compared with Gemcitabine. On the procedure: as §2, §3
Data set [3] relates to MiaPACA cell lines (resistant to the nucleoside analog Gemcitabine). In words: Cell viability on Gemcitabine-resistant pancreatic cancer cells (FIG. 2c). On the procedure:
as §2, §3

As to `CCCCCCC#Cc1ccc(S(=O)(=O)Nc2cccc(-c3csc(NC(C)=O)n3)c2)cc1` [IIa-2, N-(4-(3-((4-(oct-1-yn-1-yl)phenyl)sulfonamido)phenyl)thiazol-2-yl)acetamide], the cell viability entry was “strong activity” in [1]; “viability decrease in the same range than the standard BCR-ABL inhibitor Imatinib” in the data set with sensitive K562 CML cells; “strong activity” in data set [2]; “much more active; also recorded: almost total mortality” with resistant K562 cells; “very high activity; also recorded: total cell death” with BxPC3 (sensitive). The “cell viability of normal cells (percentage of living cells relatively to DMSO)” value in the data set on human normal melanocytes and in the data set on Normal human fibroblasts was “no effect” throughout. Moreover, the “cell viability (percentage of cells alive relatively to DMSO)” value in the data set on A375 melanoma cells is given as “very active”. The “mechanism of death: PARP cleavage (apoptosis) and LCII/LCIII conversion (autophagy)” value with A375 melanoma cell line was “induced both apoptosis and autophagy cellular deaths”.
For the molecule `CCCCCCCCc1ccc(S(=O)(=O)Nc2cccc(-c3csc(NC(C)=O)n3)c2)cc1` [IIIa-3, N-(4-(3-((4-octylphenyl)sulfonamido)phenyl)thiazol-2-yl)acetamide], the cell viability result was “strong activity” in data set [1]; “viability decrease in the same range than the standard BCR-ABL inhibitor Imatinib” with sensitive K562 CML cells; “still very active” in data set [3]; “strong activity” in data set [2]; “much more active” with resistant K562 cells; “very high activity” with BxPC3 (sensitive). In the data set on A375 melanoma cells, the “cell viability (percentage of cells alive relatively to DMSO)” value is “very active”.
As to `Nc1ccn([C@@H]2O[C@H](CO)[C@@H](O)C2(F)F)c(=O)n1` [Gemcitabine, reference compound], in data set [3], the cell viability result is “inactive”.
Consider `CCCCCCc1ccc(S(=O)(=O)Nc2cccc(-c3csc(NC(C)=O)n3)c2)cc1` [IIIa-1, N-(4-(3-((4-hexylphenyl)sulfonamido)phenyl)thiazol-2-yl)acetamide], for which the cell viability result in data set [1] is “strong activity”; in the data set on sensitive K562 CML cells, “viability decrease in the same range than the standard BCR-ABL inhibitor Imatinib”; in [3] it was “still very active”; in data set [2], “strong activity”; in the data set on resistant K562 cells, “much more active”; in the data set with BxPC3 (sensitive), “very high activity”. The “cell viability (percentage of cells alive relatively to DMSO)” value in the data set on A375 melanoma cells was “very active”.
Consider `CCCS(=O)(=O)Nc1ccc(F)c(C(=O)c2c[nH]c3ncc(-c4ccc(Cl)cc4)cc23)c1F` [PLX4032, reference compound], for which the cell viability result in [1] is listed as “looses most activity”. The “mechanism of death: PARP cleavage (apoptosis) and LCII/LCIII conversion (autophagy)” value in the data set on A375 melanoma cell line is listed as “only apoptosis is induced”.
